Here are results for 17 compounds from patent publication US20240254129A1, “HETEROCYCLIC COMPOUNDS AND USES THEREOF” (Kumquat Biosciences Inc., priority 2021, published 2024).

The target in one assay is T1, wildtype Kras / hSOS1 (Homo sapiens, UniProt P01116).
T1 construct: made in house; host or cells: E. coli BL21 (DE3)
Kind of assay: HTRF assay, wildtype Kras / SOS1 interaction. The assay is classed as binding. As to conditions: read-out: IC50 against wildtype Kras. The text has this:
(§1) This assay can be also used to assess a selective inhibition of a mutant Ras protein relative to a wildtype, or relative to a different mutant Ras protein. For example, the equilibrium interaction of wildtype Kras or K-Ras mutant (e.g., wildtype or a mutant thereof including those mentioned in Example 6) with SOS1 (e.g., hSOS1) can be assessed as a proxy or an indication for a subject compound's ability to bind and inhibit Ras protein. HTRF assay detects from (i) a fluorescence resonance energy transfer (FRET) donor (e.g., antiGST-Europium) that is bound to GST-tagged K-Ras mutant to (ii) a FRET acceptor (e.g., anti-6His-XL665) bound to a His-tagged hSOS1.
(§2) The assay buffer can contain ˜5 mM HEPES pH 7.4, ˜150 mM NaCl, ˜ 1 mM DTT, 0.05% BSA and 0.0025% (v/v) Igepal. A Ras working solution is prepared in an assay buffer containing typically a suitable amount of the protein construct (e.g., GST-tagged K-Ras mutant) and the FRET donor (e.g., antiGST-Eu(K) from Cisbio, France). A SOS1 working solution is prepared in an assay buffer containing suitable amount of the protein construct (e.g., His-hSOS1) and the FRET acceptor (e.g., anti-6His-XL665 from Cisbio, France). A suitable amount of the protein construct will depend on the range of activity or range of IC50 values being detected or under investigation. For detecting IC50 within a range of 500 nM, the protein constructs of the same range of molarity can be utilized.
(§3) A fixed volume of DMSO with or without test compound is transferred into a 384-well plate. Ras working solution is added to all wells of the test plate. SOS1 working solution is added to all wells except for those that are subsequently filled the inhibitor control solution. Upon incubation for about 10 minutes or longer, the fluorescence is measured with a M1000Pro plate reader (Tecan) using HTRF detection (excitation 337 nm, emission 1: 620 nm, emission 2: 665 nm). Compounds are tested in duplicates at different concentrations (for example, 10 μM, 2.5 μM, 0.63 μM, 0.16 μM, 0.04 µM, 0.01 μM test compound). The ratiometric data (i.e., emission 2 divided by emission 1) is used to calculate IC50 values against Ras using GraphPad Prism (GraphPad software). Following this general procedure, samples were tested with or without a subject compound disclosed herein including compounds exemplified in Table 1 to assess their abilities to inhibit K-Ras signaling or their respective IC50 values against a given Ras protein (e.g., a given mutant K-Ras) of interest.
In general terms: In TR-FRET formats the signal depends on donor and acceptor labels being close together.

The target in assay [1] is GST-tagged K-Ras mutant / His-tagged hSOS1 (Homo sapiens, UniProt P01116). Put plainly: HTRF assay, K-Ras mutant / SOS1 interaction. The format is binding. As to conditions: read-out: IC50 against mutant Kras.
Chain of GST-tagged K-Ras mutant / His-tagged hSOS1 (P01116 whole entry G12D, form open): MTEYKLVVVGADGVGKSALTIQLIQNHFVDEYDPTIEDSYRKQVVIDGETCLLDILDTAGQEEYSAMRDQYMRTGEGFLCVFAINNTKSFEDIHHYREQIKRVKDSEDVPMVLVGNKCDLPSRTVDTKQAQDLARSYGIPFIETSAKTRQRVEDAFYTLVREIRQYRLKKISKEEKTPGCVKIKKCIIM
Excerpt: as §1, §2, §3

The mark [2] stands for this setting: compound nos. 102-196, general methodology of example 5.
The mark [3] stands for this setting: compound nos. 201-213, general methodology of example 5.

The term IC50 denotes the midpoint of a concentration-inhibition curve.

SMILES strings stand for the structures. Like-named read-outs stand apart in the source and are kept apart here. A value given as a limit tells only on which side of the number the result lay.

T1 sequence (P01116 1-188 isoform P01116-2): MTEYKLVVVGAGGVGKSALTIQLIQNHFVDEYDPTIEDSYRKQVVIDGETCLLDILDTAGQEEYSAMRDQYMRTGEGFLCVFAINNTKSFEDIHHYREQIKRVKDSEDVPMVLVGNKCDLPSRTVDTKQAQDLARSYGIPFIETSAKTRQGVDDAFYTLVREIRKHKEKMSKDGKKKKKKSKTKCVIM

In the case of `CN1CCC[C@H]1COc1nc(N2CC3CCNC3C2)c2cc(Cl)c(-c3cccc4sc(N)nc34)c(F)c2n1` (stereo partly drawn) [Compound 124, 4-(6-chloro-8-fluoro-4-(hexahydropyrrolo[3,4-b]-pyrrol-5(1H)-yl)-2-(((S)-1-methylpyrrolidin-2-yl)meth-oxy)quinazolin-7-yl)benzo-[d]thiazol-2-amine], the 50% inhibitory concentration (IC50) (at wildtype Kras / hSOS1 (setting [2]); in assay [1] (setting [2])) was above 0.5 µM in each case.

Regarding `Nc1nc2c(-c3c(Cl)cc4c(N5C[C@H]6CC[C@@H](C5)N6)nc(OCCCN5CCCC5)nc4c3F)ccc(F)c2s1` [Compound 208, 4-(4-((1R,5S)-3,8-diaza-bicyclo[3.2.1]octan-3-yl)-6-chloro-8-fluoro-2-(3-(pyrrolidin-1-yl)propoxy)-quinazolin-7-yl)-7-fluoro-benzo[d]thiazol-2-amine], the IC50 (at wildtype Kras / hSOS1 (setting [3]); in assay [1] (setting [3])) was below 1.5 µM each time.

Turning to `CN1CCC[C@H]1COc1nc(N2CCCC(N3CC(N)C3)CC2)c2cc(Cl)c(-c3cccc4sc(N)nc34)c(F)c2n1` (stereo partly drawn) [Compound 441, 4-(4-(4-(3-aminoazetidin-1-yl)azepan-1-yl)-6-chloro-8-fluoro-2-(((S)-1-methyl-pyrrolidin-2-yl)methoxy)-quinazolin-7-yl)benzo[d]-thiazol-2-amine], the 50% inhibitory concentration (IC50) at wildtype Kras / hSOS1 (compound nos. 401-703) was below 0.5 µM; in assay [1] (compound nos. 401-703) it was above 0.5 µM.

For the compound `Nc1nc2c(-c3c(Cl)cc4c(N5CCCNCC5)nc(OC[C@@]56CCCN5C[C@H](F)C6)nc4c3F)ccc(F)c2s1` [Compound 621, 4-(6-chloro-4-(1,4-diazepan-1-yl)-8-fluoro-2-(((2R,7aS)-2-fluorotetrahydro-1H-pyrrolizin-7a(5H)-yl)meth-oxy)quinazolin-7-yl)-7-fluorobenzo[d]thiazol-2-amine], the results for the half-maximal inhibitory concentration (IC50) (on wildtype Kras / hSOS1 (compound nos. 401-703); in assay [1] (compound nos. 401-703)) were above 0.5 µM and below 0.5 µM, respectively.

For the compound `Fc1c(-c2ccc(F)c3[nH]nc(I)c23)c(Cl)cc2c(N3CC4CCC(C3)N4)nc(OC[C@@]34CCCN3C[C@H](F)C4)nc12` [Compound 671, 4-(3,8-diazabicyclo[3.2.1]-octan-3-yl)-6-chloro-8-fluoro-7-(7-fluoro-3-iodo-1H-indazol-4-yl)-2-(((2R,7aS)-2-fluorotetra-hydro-1H-pyrrolizin-7a(5H)-yl)methoxy)quinazoline], the IC50 (on wildtype Kras / hSOS1 (compound nos. 401-703); in assay [1] (compound nos. 401-703)) was above 0.5 µM each time.

Take `CN1CCC[C@H]1COc1nc(N2CCCCC(O)C2)c2cc(Cl)c(-c3cccc4sc(N)nc34)c(F)c2n1` (stereo partly drawn) [Compound 506, 1-(7-(2-aminobenzo[d]thia-zol-4-yl)-6-chloro-8-fluoro-2-(((S)-1-methylpyrrolidin-2-yl)methoxy)quinazolin-4-yl)azepan-3-ol]: the IC50 on wildtype Kras / hSOS1 (compound nos. 401-703) was above 0.5 µM; in assay [1] (compound nos. 401-703), below 0.5 µM.

With `Nc1nc2c(-c3c(Cl)cc4c(N5CCNC(=O)CC5)nc(OC[C@@]56CCCN5C[C@H](F)C6)nc4c3F)ccc(F)c2s1` [Compound 604, 1-(7-(2-amino-7-fluoroben-zo[d]thiazol-4-yl)-6-chloro-8-fluoro-2-(((2R,7aS)-2-fluorotetrahydro-1H-pyrrol-izin-7a(5H)-yl)methoxy)-quinazolin-4-yl)-1,4-diazepan-5-one], the figures for the IC50 (on wildtype Kras / hSOS1 (compound nos. 401-703); in assay [1] (compound nos. 401-703)) were above 0.5 µM and below 0.5 µM, respectively.

As to `Nc1cccc(-c2c(Cl)cc3c(N4CCCCCC4)nc(OCC45CCCN4CCC5)nc3c2F)c1F` [Compound 430, 3-(4-(azepan-1-yl)-6-chloro-8-fluoro-2-((tetrahydro-1H-pyrrolizin-7a(5H)-yl)meth-oxy)quinazolin-7-yl)-2-fluoroaniline], the concentration for half-maximal inhibition (IC50) on wildtype Kras / hSOS1 (compound nos. 401-703) is below 0.5 µM; in assay [1] (compound nos. 401-703), above 0.5 µM.

As to `Fc1c(-c2cccc3[nH]ncc23)ccc2c(N3CC4CCC(C3)N4)nc(OC[C@@]34CCCN3C[C@H](F)C4)nc12` [Compound 654, 4-(3,8-diazabicyclo[3.2.1]-octan-3-yl)-8-fluoro-2-(((2R,7aS)-2-fluorotetra-hydro-1H-pyrrolizin-7a(5H)-yl)methoxy)-7-(1H-indazol-4-yl)quinazoline], the IC50 (on wildtype Kras / hSOS1 (compound nos. 401-703); in assay [1] (compound nos. 401-703)) was above 0.5 µM throughout.

Turning to `Fc1c(-c2cccc3cn[nH]c23)ccc2c(N3CC4CCC(C3)N4)nc(OC[C@@]34CCCN3C[C@H](F)C4)nc12` [Compound 657, 4-(3,8-diazabicyclo[3.2.1]-octan-3-yl)-8-fluoro-2-(((2R,7aS)-2-fluorotetra-hydro-1H-pyrrolizin-7a(5H)-yl)methoxy)-7-(1H-indazol-7-yl)quinazoline], the 50% inhibitory concentration (IC50) (on wildtype Kras / hSOS1 (compound nos. 401-703); in assay [1] (compound nos. 401-703)) was above 0.5 µM throughout.

For the compound `Nc1nc2c(-c3c(Cl)cc4c(N5CCCC(N)CC5)nc(OC[C@@]56CCCN5C[C@H](F)C6)nc4c3F)ccc(F)c2s1` (stereo partly drawn) [Compound 431, 4-(4-(4-aminoazepan-1-yl)-6-chloro-8-fluoro-2-(((2R,7aS)-2-fluorotetra-hydro-1H-pyrrolizin-7a(5H)-yl)methoxy)quinazolin-7-yl)-7-fluorobenzo[d]thiazol-2-amine], the half-maximal inhibitory concentration (IC50) (on wildtype Kras / hSOS1 (compound nos. 401-703); in assay [1] (compound nos. 401-703)) was below 0.5 µM each time.

For `Fc1c(Br)ccc2c(N3CC4CCC(C3)N4)nc(OC[C@@]34CCCN3C[C@H](F)C4)nc12` [Compound 537, 4-(3,8-diazabicyclo[3.2.1]-octan-3-yl)-7-bromo-8-fluoro-2-(((2R,7aS)-2-fluorotetrahydro-1H-pyrrol-izin-7a(5H)-yl)methoxy)-quinazoline], the half-inhibitory concentration (IC50) (at wildtype Kras / hSOS1 (compound nos. 401-703); in assay [1] (compound nos. 401-703)) was above 0.5 µM each time.

As to `CN1CCC[C@H]1COc1nc(N2CCC3CNCC3C2)c2cc(Cl)c(-c3cccc4sc(N)nc34)c(F)c2n1` (stereo partly drawn) [Compound 143, 4-(6-chloro-8-fluoro-2-(((S)-1-methylpyrrolidin-2-yl)-methoxy)-4-(octahydro-5H-pyrrolo[3,4-c]pyridin-5-yl)-quinazolin-7-yl)benzo[d]-thiazol-2-amine], the IC50 (on wildtype Kras / hSOS1 (setting [2]); in assay [1] (setting [2])) was above 0.5 µM each time.

As to `Cc1ccc2oc(N)nc2c1-c1c(Cl)cc2c(N3CCNCC(F)(F)C3)nc(OC[C@@]34CCCN3C[C@H](F)C4)nc2c1F` [Compound 463, 4-(6-chloro-4-(6,6-difluoro-1,4-diazepan-1-yl)-8-fluoro-2-(((2R,7aS)-2-fluorotetra-hydro-1H-pyrrolizin-7a(5H)-yl)methoxy)quinazolin-7-yl)-5-methylbenzo[d]oxazol-2-amine], the IC50 (at wildtype Kras / hSOS1 (compound nos. 401-703); in assay [1] (compound nos. 401-703)) was below 0.5 µM throughout.

With `Cc1ccnc(C(C)C)c1-n1c(=O)nc(N2CC3CCC(C2)N3)c2cc(F)c(-c3c(O)cccc3F)nc21` [Compound 687, 4-(3,8-diazabicyclo[3.2.1]-octan-3-yl)-6-fluoro-7-(2-fluoro-6-hydroxyphenyl)-1-(2-isopropyl-4-methylpyr-idin-3-yl)pyrido[2,3-d]pyr-imidin-2(1H)-one], the IC50 (on wildtype Kras / hSOS1 (compound nos. 401-703); in assay [1] (compound nos. 401-703)) was above 0.5 µM in each case.

For the compound `CN1CCC[C@H]1COc1nc(N2CCCCC(O)C2)c2cc(Cl)c(-c3cccc4sc(N)nc34)c(F)c2n1` (stereo partly drawn) [Compound 562, 1-(7-(2-aminobenzo[d]-thiazol-4-yl)-6-chloro-8-fluoro-2-(((S)-1-methyl-pyrrolidin-2-yl)methoxy)-quinazolin-4-yl)azepan-3-ol], the IC50 on wildtype Kras / hSOS1 (compound nos. 401-703) is above 0.5 µM; in assay [1] (compound nos. 401-703), below 0.5 µM.

Turning to `Nc1nc2c(-c3c(Cl)cc4c(N5[C@@H]6CC[C@H]5CC(F)(F)C6)nc(OC[C@@]56CCCN5C[C@H](F)C6)nc4c3F)ccc(F)c2s1` [Compound 303, 4-(6-chloro-4-((1R,5S)-3,3-difluoro-8-azabicyclo[3.2.1]-octan-8-yl)-8-fluoro-2-(((2R,7aS)-2-fluorotetra-hydro-1H-pyrrolizin-7a(5H)-yl)methoxy)quinazolin-7-yl)-7-fluorobenzo[d]thiazol-2-amine], the figures for the IC50 (at wildtype Kras / hSOS1 (compound nos. 301-306); in assay [1] (compound nos. 301-306)) were below 1.5 µM and above 1.5 µM, respectively.
